# Source: patent publication US20020031818A1, “Modification of Mdm2 activity” (priority 2000, published 2002)
# Tests used:
# Mdm2 [1] = assay: In vivo ubiquitination of Mdm2 in EJ cells (HA-Ub, Mdm2 immunoprecipitation); format: cell-based, mouse
# From the text: FIG. 14A-14E. A. In vitro ubiquitination of Mdm2 is inhibited by p19^ARF. GST-Mdm2 was subjected to an in vitro ubiquitination reaction using purified forms of E1, E2 and Ub-HA in the presence of ATP. Addition of bacculovirus-purified p19^ARF at the indicated concentrations blocked Mdm2 ubiquitination. Glutathione bead-coupled GST-Mdm2 in its ubiquitinated or non-ubiquitinated forms was washed and analyzed on immunoblots using antibodies to HA (upper panel). Middle panel depicts the level of Mdm2 expression and the lower panel, the level of p19^ARF added to the reaction. B. p19^ARF expression increases Mdm2 self-ubiquitination in EJ cells. EJ cells were transfected with the indicated plasmids. Cells were harvested 36 h later and proteins ([…]) were immunoprecipitated using Mdm2 antibodies (2A10). Immunoprecipitated material was washed and proteins loaded onto 10% SDS-PAGE, followed by immunoblot analysis with HA-antibodies to detect covalent HA-ubiquitin conjugation to Mdm2 (upper panel). Middle panel depicts level of immunoprecipitated Mdm2. Lower panel represents western analysis of p19^ARF expression levels. C. In vitro ubiquitination of Mdm2 in the presence of p19^ARF and protein extracts. […] The level of p53 immunoprecipitated was monitored in immunoblots using polyclonal antibodies to p53 (middle). […]
# p53-mediated apoptosis = assay: Apoptosis assay (DNA fragmentation, flow cytometry) in Mdm2/p53 double null cells; format: cell-based; settings: co-expression with p53 in Mdm2/p53 double null cells
# Procedure: FIGS. 5A-5D. Mdm2 sumoylation or mutation on Lys446 increases p53 ubiquitination and degradation and decreases p53 ability to mediate apoptosis. […] WCE was immunoprecipitated using monoclonal p53 antibodies. […] B. Ubiquitinated Mdm2 is less efficient in targeting the ubiquitination of p53. Bacterially expressed Mdm2 ([…]) was subjected to in vitro ubiquitination (self ubiquitination) in the presence of E1 [45 ng], E2 UbcH5b [1.5 μg] and ubiquitin [3 μg; SIGMA] and […] in ubiquitination buffer for the 0, 2, or 3 h (to ensure efficient self-ubiquitination) as indicated in Figure. To monitor the degree of Mdm2's ability to target the ubiquitination of p53, equal amounts of the self-ubiquitinated Mdm2 were extensively washed with TBS/0.5% Triton X-100 before incubated with bacculovirus-expressed and purified form of HA-tagged p53 for 2 h in the presence of E1, E2 and ubiquitin. The degree of p53 ubiquitination was monitored via immunoblot analysis using antibodies to HA. C. […]
# Mdm2/p53 double null cells were transfected with Mdm2 constructs (as indicated) and marker plasmid encoding Green Fluorescent Protein, pEGFP (1 μg). […] The percentage of cells to the left of the diploid G0/1 peak, characteristic of hypodiploid cells, was calculated as the percentage of apoptotic cells.
# Mdm2 [2] = assay: 35S pulse-chase half-life of Mdm2 forms in p53/Mdm2 double null cells; format: cell-based, human; settings: lactacystin 25 μM
# Procedure: C. p53/Mdm2 double null cells were transfected with the wt or K1 forms of Mdm2 and 24 h later were subjected to pulse chase labeling with ^35S-methionine in the absence or presence of lactacystin (25 μM) as indicated in Figure. Proteins prepared at the indicated time-points were immunoprecipitated using monoclonal antibodies to Mdm2 followed by autoradiography.
# p53/Mdm2 double null cells were transfected with wt or K1 forms of Mdm2 expression vectors (4 μg). ^35S-methionine (1 mCi) was added to the cell cultures 24 h after transfection for 5 hr (pulse) followed by chase (2 mM cold methionine) for the indicated time-points. Protein extracts (1 mg) were used for immunopurification of Mdm2 using mixture of monoclonal antibodies (2A-10/3 F1). Immunoprecipitated Mdm2 was washed, separated on 10% SDS-PAGE and analyzed by autoradiography.
compound,measurement,setting,value
C[S+]([O-])c1ccc(-c2nc(-c3ccncc3)c(-c3ccc(F)cc3)[nH]2)cc1 (centres unmarked) [SB203580],p19ARF-mediated Mdm2 ubiquitination in inhibitor-treated cells,"Mdm2 [1]; EJ cells with Flag-Mdm2, p19ARF, HA-Ub, PD 98059 50 μM, SB203580 10 and 100 μM, LY294002 50 μM, Herbimycin 1 μM",capable of attenuating p19^ARF-mediated Mdm2 ubiquitination
same,increase in Mdm2 ubiquitination after UV treatment in inhibitor-pretreated cells,"Mdm2 [1]; SB203580 10 μM or LY294002 50 μM, 2 h prior to harvest",attenuated
K1: Mdm2 mutant with lysine 446 substituted for arginine,decrease in p53-induced apoptosis (cell death) compared with wt Mdm2,p53-mediated apoptosis,greater decrease in degree of cell death
CC(=O)N[C@@H](CSC(=O)[C@]1([C@@H](O)C(C)C)NC(=O)[C@H](C)[C@@H]1O)C(=O)O [lactacystin],effect on half life of K1 form of Mdm2,Mdm2 [2]; K1 expressing cells,remained unchanged
same,effect on half-life of p75 and p90 forms of Mdm2,Mdm2 [2]; wt Mdm2 transfected cells,prolonged the half-life of both p75 and p90
